Values quoted from earlier work, collected in patent US20210220347A1 (priority 2015, published 2021).

Details: in vivo

CN1CC[C@]23c4c5ccc(O)c4O[C@H]2[C@@H](O)C=C[C@H]3[C@H]1C5 [morphine]
Respiratory depression dose response: linear and dose proportional
